Laboratory results from patent US20240269139A1, “COMPOUNDS FOR TARGETED PROTEIN DEGRADATION OF KINASES” (DANA-FARBER CANCER INSTITUTE, INC., priority 2020, published 2024).
Entries after “also recorded” stand apart in the source; their conditions may differ.

Biological target: protein kinases (human kinome)
Format: cell-based
Details: for Kinase hits: kinases significantly downregulated vs DMSO (fold change cutoff −1.25, P-value<0.01), ≤8 h, 0.1-5 μM degrader, 7 cell lines; for Total no. kinase hits: number of degraded kinases per library compound; for kinases the bifunctional compound degrades: as stated for the structure in the embodiments
Description: Although development of targeted protein degraders requires a POI binder, among already-liganded proteins such as kinases, it was hypothesized that different targets would have a different propensity for current approaches to degrader-mediated destruction, which was termed ‘degradability’. […] It was rationalized that the probability of identifying the same kinase as a false positive in multiple treatments is low, therefore this analysis served to also assess the robustness of our data and subsequent interpretations. […] Overall, 62 protein kinases were degraded in more than 10 independent treatments, and remarkably, 9 of these (CDK4, AURKA, FER, WEE1, BLK. LIMK2, CDK6, GAK, LIMK1) were each degraded in at least 40 of the 154 independent treatments, emphasizing their predisposition to induced degradation (FIG. 1G; Appendix I).
Next, the frequency of degradation assessment was corrected for over-representation of molecules in the full dataset by omitting replicate profiling of compounds under different experimental conditions, to remove any bias. […] Unsurprisingly, the top degradable kinases mirror those from the previous analysis (CDK4, AURKA, FER, WEE1, BLK), confirming that in sufficiently large datasets, even with over-representation of certain molecules, frequency of degradation is a good measure of general tractability.

Compound	Kinase hits	Total no. kinase hits	kinases the bifunctional compound degrades	logFC (BTK (Q06187-2), experiment wp055)	logFC of BTK (Q06187-2) (Experiment wp055)
Nc1ncnc2c1c(-c1ccc(Oc3ccccc3)cc1)nn2[C@H]1CC[C@H](N2CCN(CCOCCNC(=O)CNc3cccc4c3C(=O)N(C3CCC(=O)NC3=O)C4=O)CC2)CC1 (stereo partly drawn) [SB1-G-181]	ABL1, ABL2, AURKA, BLK, CSK, CSNK1E, FYN, LATS1, LCK, LIMK1, MAP2K5, SRC	12			
Cc1ccc(NC(=O)c2cccc(C(F)(F)F)c2)cc1N1Cc2cnc(Nc3ccc(N4CCN(CCCCCC(=O)N[C@H](C(=O)N5C[C@H](O)C[C@H]5C(=O)N[C@@H](C)c5ccc(-c6scnc6C)cc5)C(C)(C)C)CC4)nc3)nc2N(C)C1=O [DB1114, (2S,4R)-1-((S)-3,3-dimethyl-2-(6-(4-(5-((8-methyl-6-(2-methyl-5-(3-(trifluoromethyl)benzamido)phenyl)-7-oxo-5,6,7,8-tetrahydropyrimido[4,5-d]pyrimidin-2-yl)amino)pyridin-2-yl)piperazin-1-yl)hexanamido)butanoyl)-4-hydroxy-N—((S)-1-(4-(4-methylthiazol-5-yl)phenyl)ethyl)pyrrolidine-2-carboxamide]		31			
Cc1cnc(Nc2ccc(N3CCN(CCCCCCC(=O)N[C@H](C(=O)N4C[C@H](O)C[C@H]4C(=O)N[C@@H](C)c4ccc(-c5scnc5C)cc4)C(C)(C)C)CC3)cc2)nc1Nc1cccc(S(=O)(=O)NC(C)(C)C)c1 [JWG-123]	AAK1, CDK16, WEE1, GAK, MARK4, NEK9, RPS6KB1, SIK2, SIK3, SNRK, STKI7A, STK17B	12			
Cc1ncsc1-c1ccc([C@H](C)NC(=O)[C@@H]2C[C@@H](O)CN2C(=O)[C@@H](NC(=O)CCCCOc2ccccc2-c2ccc3nc(-c4cccnc4N)n(-c4ccc(C5(N)CCC5)cc4)c3n2)C(C)(C)C)cc1 [INY-04-125-01]	LATS1, STK17A	2	LATS1 and STK17A		
NC(=O)c1c(F)cccc1Nc1nc(NC2CCN(S(=O)(=O)CCNC(=O)CCCCCCCCOc3cccc4c3C(=O)N(C3CCC(=O)NC3=O)C4=O)CC2)ncc1Br (stereo not drawn) [TMX-01-160-1]	AURKA, CDK1, CDK12, CDK16, CDK17, CDK2, CDK4, CDK5, CDK6, CDK7, CDK9, MAPK10, MAPK8, MAPK9, RPS6KA1	15			
CC(C)S(=O)(=O)c1ccccc1Nc1nc(Nc2ccc(N3CCN(CCOCCOCCNC(=O)CNc4cccc5c4C(=O)N(C4CCC(=O)NC4=O)C5=O)CC3)cc2)ncc1Cl (stereo not drawn) [TL12-186]	AAK1, ABL1, AURKA, AURKB, BLK, BMPR1A, BUB1, BUB1B, CDK10, CDK12, CDK13, CDK17, CDK2, CDK4, CDK5, CDK6, CDK7, CDK9, COQ8A, COQ8B, CSNK1D, CSNK1E,; also recorded: EEF2K, FER, FLT1, GAK, HASPIN, IRAK4, ITK, LCK, LIMK1, LIMK2, MAP3K11, MAP3K21, MAP4K1, MAP4K3, MAPK6, MAPK7, MARK2, MARK4, NEK2, NLK, PDK2, PLK4, PRAG1, PRKAA1, PTK2B, RIOK2, RPS6KA1, SIK2, SRC, STK10, STK17A, STK35, TEC, TNK2, ULK1, ULK3, WEE1, YES1	60			
O=C(CCCCCCNC(=O)COc1cccc2c1C(=O)N(C1CCC(=O)NC1=O)C2=O)NCCOc1ccc(Nc2ncc3ccc(=O)n(C4CC5CCC4C5)c3n2)cc1 (stereo not drawn) [SB1-G-194]	AAK1, AURKA, AURKB, CDK6, CDK9, FGR2, STK17A, TTK	8	AAK1, AURKA, AURKB, CDK6, CDK9, FGR2, STK17A, and TTK		
Cc1c(NC(=O)c2ccc(C(C)(C)C)cc2)cccc1-c1cn(C)c(=O)c(Nc2ccc(C(=O)N3CCN(CCCCCCNC(=O)CNc4cccc5c4C(=O)N(C4CCC(=O)NC4=O)C5=O)CC3)cc2)n1 (stereo not drawn) [DD.03.171]				−3.077	−3.077
Cc1ncsc1-c1ccc([C@H](C)NC(=O)[C@@H]2C[C@@H](O)CN2C(=O)[C@@H](NC(=O)CCOCCOCCN2CCN(c3ccc(Nc4ncc(Cl)c(Nc5ccccc5S(=O)(=O)C(C)C)n4)cc3)CC2)C(C)(C)C)cc1 [FMF-06-098-1, (2S,4R)-1-((S)-2-(3-(2-(2-(4-(4-((5-chloro-4-((2-(isopropylsulfonyl)phenyl)amino)pyrimidin-1320 2-yl)amino)phenyl)piperazin-I-yl)ethoxy)ethoxy)propanamido)-3,3-dimethylbutanoyl)-4-1321 hydroxy-N—((S)-1-(4-(4-methylthiazol-5-yl)phenyl)ethyl)pyrrolidine-2-carboxamide]	AAK1, ABL2, AURKA, AURKB, BUB1B, CDC7, CDK1, CDK12, CDK13, CDK2, CDK4, CDk6, CDK7, CDK9, CHEK1, CSNK1D, EPHA1, FER, FGFR1, GAK, IRAK4, ITK, LIMK2, MAP4K2, MAP4K3, MAPK6, MAPK7, MARK4, MELK, PKN3, PLK4, PRKAA1, PTK2, PTK6, RPS6KA4, SIK2, STK35, TNK2, UHMK1, ULK1, WEE1	42	AAK1, ABL2, AURKA, AURKB, BUB1B, CDC7, CDK1, CDK12, CDK13, CDK2, CDK4, CDk6, CDK7, CDK9, CHEK1, CSNK1D. EPHA1, FER, FGFR1, GAK, IRAK4, ITK, LIMK2, MAP4K2, MAP4K3, MAPK6, MAPK7, MARK4, MELK, PKN3, PLK4, PRKAA1, PTK2, PTK6, RPS6KA4, SIK2, STK35, TNK2. UHMK1, ULK1, and WEE1		
CC(C)S(=O)(=O)c1ccccc1Nc1nc(Nc2ccc(N3CCN(CCOCCOCCOCCNC(=O)CNc4cccc5c4C(=O)N(C4CCC(=O)NC4=O)C5=O)CC3)cc2)ncc1Cl (stereo not drawn) [SK-3-87, N-(2-(2-(2-(2-(4-(4-((5-chloro-4-((2-(isopropylsulfonyl)phenyl)amino)pyrimidin-2-yl)amino)phenyl)piperazin-1-yl)ethoxy)ethoxy)ethoxy)ethyl)-2-((2-(2,6-dioxopiperidin-3-yl)-1,3-dioxoisoindolin-4-yl)amino)acetamide]	AAK1, AURKA, BLK, CDK12, CDK17, CDK2, CDK5, CDK7, CDK9, FER, ITK, LCK, LIMK2, PTK2B, WEE1	15	AAK1, AURKA, BLK, CDK12, CDK17, CDK2, CDK5, CDK7, CDK9, FER, ITK, LCK, LIMK2, PTK2B, and WEE1		
O=C1CCC(N2C(=O)c3cccc(NCCCCCCCCN4CCC(NC(=O)c5[nH]ncc5NC(=O)c5c(Cl)cccc5Cl)CC4)c3C2=O)C(=O)N1 (stereo not drawn) [MFH-5-126-1]	AURKA, BUB1, BUB1B, CDK13, CDK14, CDK17, CDK4, CDK9, CHEK1, CLK1, CSNK1A1, CSNK1D, DAPK1, ERN1, GSK3A, GSK3B, MAP3K1, NUAK1, PIK3CG, PIM2, PLK1, RIOK2, STK17A, STK17B, TTK, UHMK1, WEE1	27	AURKA, BUB1, BUB1B, CDK13, CDK14, CDK17, CDK4, CDK9, CHEK1, CLK1, CSNK1A1, CSNK1D, DAPK1, ERN1, GSK3A, GSK3B, MAP3K1, NUAK1, PIK3CG, PIM2, PLK1, RIOK2, STK17A, STK7B, TTK, UHMK1, and WEE1		
CC(=O)c1c(C)c2cnc(Nc3ccc(N4CCN(CCCCNC(=O)CNc5cccc6c5C(=O)N(C5CCC(=O)NC5=O)C6=O)CC4)cn3)nc2n(C2CCCC2)c1=O (stereo not drawn) [BSJ-01-147]	CDK4, CDK6, WEE1	3			
Cc1ncsc1-c1ccc([C@H](C)NC(=O)[C@@H]2C[C@@H](O)CN2C(=O)[C@@H](NC(=O)CCOCCOCCOCCN2CCC(C(=O)Nc3ncc(SCc4ncc(C(C)(C)C)o4)s3)CC2)C(C)(C)C)cc1 [ZZ-1-31B]	CDK9, CLK1	2			
Cc1cc(Nc2ncc(Br)c(Nc3cccc(F)c3C(N)=O)n2)ccc1S(=O)(=O)NCCOCCOCCOCCOCCNc1cccc2c1C(=O)N(C1CCC(=O)NC1=O)C2=O (stereo not drawn) [TMX-02-174]	AAK1, AURKA, AURKB, CDK1, CDK12, CDK16, CDK17, CDK2, CDK5, CDK7, CDK9, CLK1, FER, GSK3A, GSK3B, IRAK3, MAP3K11, MAPK8, MAPK9, NEK1, NEK3, NEK4, NEK9, NUAK1, PRKAA1, PRKAA2, PTK2, PTK2B, RPS6KA1, RPS6KA3, RPS6KA4, STK33, STK35, STK38, TBK1, TEC, TTK, WEE1	37			
O=C(COc1cccc2c1C(=O)N(C1CCC(=O)NC1=O)C2=O)NCCCCCCCC(=O)NC1(c2ccc(-c3nc4ccn5c(=O)[nH]nc5c4cc3-c3ccccc3)cc2)CCC1 (stereo not drawn) [INY-01-140-1]	PDK1, PDK2, PDK3	3	PDK1, PDK2, and PDK3		
CC(=O)c1c(C)c2cnc(Nc3ccc(N4CCN(CCCCNC(=O)COc5cccc6c5C(=O)N(C5CCC(=O)NC5=O)C6=O)CC4)cn3)nc2n(C2CCCC2)c1=O (stereo not drawn) [BSJ-03-204]	CDK4, CDK6, PDK1, WEE1	4			
Nc1ncnc2c1c(-c1ccc(Oc3ccccc3)cc1)nn2[C@H]1CC[C@H](N2CCN(CCCCCCNC(=O)COc3cccc4c3C(=O)N(C3CCC(=O)NC3=O)C4=O)CC2)CC1 (stereo partly drawn) [SB1-G-200]	ABL1, ABL2, BLK, CSNK1E, CSK, FYN, LATS1, LCK, LIMK1, MAP2K5, SRC	11	ABL1, ABL2, BLK, CSNK1E. CSK, FYN, LATS1, LCK, LIMK1, MAP2K5, and SRC		
Cc1cnc(Nc2ccc(N3CCN(CCOCCOCCC(=O)N[C@H](C(=O)N4C[C@H](O)C[C@H]4C(=O)N[C@@H](C)c4ccc(-c5scnc5C)cc4)C(C)(C)C)CC3)cc2)nc1Nc1cccc(S(=O)(=O)NC(C)(C)C)c1 [JWG-122]	AAK1, GAK	2	AAK1 and GAK		
Nc1ncc(-c2ccc(S(=O)(=O)N(CCCNC(=O)CCOCCOCCOCCOCCOCCNc3cccc4c3C(=O)N(C3CCC(=O)NC3=O)C4=O)C3CC3)cc2F)cc1-c1ccc2c(c1)CCNC2=O (stereo not drawn) [WH-9533-153, N-(3-((4-(6-amino-5-(1-oxo-1,2,3,4-tetrahydroisoquinolin-6-yl)pyridin-3-yl)-N-cyclopropyl-3-fluorophenyl)sulfonamido)propyl)-1-((2-(2,6-dioxopiperidin-3-yl)-1,3-dioxoisoindolin-4-yl)amino)-3,6,9,12,15-pentaoxaoctadecan-18-amide]	CDK14, CSNK1D, GSK3A, GSK3B, NUAK1, PIM2, STK17B, STK35, STK4	13			
CC(C)(C)c1nc(-c2cccc(NS(=O)(=O)c3c(F)cccc3F)c2F)c(-c2ccnc(NCCOCCNC(=O)CCOCCOCCNc3cccc4c3CN(C3CCC(=O)NC3=O)C4=O)n2)s1 (stereo not drawn) [DD-03-107]	BCKDK, COQ8A, LIMK1, PDK1, PDK2, PDK3	6	BCKDK, COQ8A, LIMK1, PDK1, PDK2, and PDK3		
